In brackets after ≈: the same amount, converted by molar mass. Where two headings read alike, the source gives them in different places.
Columns and labels:
[1] = test system: Haemophilus influenzae Holt; assay: MIC, standard agar-dilution assay (Table V); type: cell-based; conditions: Haemophilus influenzae
Method: (§1) The MIC's in Tables V and VI were determined by standard agar-dilution assays. The MIC's in Table VII were obtained using a conventional broth-dilution microtiter test.

[2] = test system: Streptococcus pyogenes C203; assay: MIC, standard agar-dilution assay (Table V); type: cell-based; conditions: Streptococcus pyogenes, C203
Method: as §1

Escherichia coli TEM = assay: MIC, standard agar-dilution assay (Table V); type: cell-based; conditions: Escherichia coli
Method: as §1

[3] = test system: Haemophilus influenzae R252; assay: MIC, standard agar-dilution assay (Table V); type: cell-based; conditions: Haemophilus influenzae, R252
Method: as §1

[4] = test system: Streptococcus pyogenes C203; assay: ED50 in mice experimentally infected with S. pyogenes C203 (Table VIII); type: in vivo
Method: The C-23 modified derivatives of OMT of this invention have shown in vivo antimicrobial activity against experimental infections. When two doses of test compound were administered to mice experimentally infected with a gram-positive bacterium, S. pyogenes C203, the activity observed was measured as an ED50 value [effective dose in mg/kg to protect 50% of the test animals: see Warren Wick, et al., J. Bacteriol. 81, 233-235 (1961)].

Streptococcus sp. 80 = assay: MIC, broth-dilution microtiter test (Table VII); type: cell-based; conditions: Streptococcus sp. 80; broth-dilution microtiter; read-out: MIC
Method: (§2) Especially noteworthy is the improved activity against gram-negative bacteria for several derivatives when compared to the activity of OMT. […] The MIC's in Tables V and VI were determined by standard agar-dilution assays. The MIC's in Table VII were obtained using a conventional broth-dilution microtiter test.

[5] = test system: Pasteurella hemolytica 23C; assay: MIC, broth-dilution microtiter test (Table VII); type: cell-based; conditions: Pasteurella, P. hemolytica 23C, read-out: MIC
In short: (§3)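 Conventional dilution MICs: agar for Enterobacter, microtiter broth for Staphylococcus and Pasteurella.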

[6] = test system: Pasteurella hemolytica 22C; assay: MIC, broth-dilution microtiter test (Table VII); type: cell-based; conditions: Pasteurella, P. hemolytica 22C, read-out: MIC
In short: as §3

Staphylococcus aureus = assay: MIC, broth-dilution microtiter test (Table VII); type: cell-based; conditions: Staphylococcus aureus; S. aureus; broth-dilution microtiter; read-out: MIC
In short: (§4)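 Growth inhibition in liquid medium, in a routine microtiter broth-dilution series, gave the MIC against staphylococci and pasteurellae; the gram-negative enteric strain was tested by conventional agar dilution instead.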

[7] = test system: Pasteurella multocida 40G; assay: MIC, broth-dilution microtiter test (Table VII); type: cell-based; conditions: Pasteurella multocida; P. multocida 40G; broth-dilution microtiter; read-out: MIC
In short: as §4

Mycoplasma gallisepticum = assay: MIC, broth-dilution microtiter test (Table VII); type: cell-based; conditions: Mycoplasmoides gallisepticum; M. gallisepticum; broth-dilution microtiter; read-out: MIC
Method: as §2

Mycoplasma hyorhinis = assay: MIC, broth-dilution microtiter test (Table VII); type: cell-based; conditions: M. hyorhinis; broth-dilution microtiter; read-out: MIC
Method: as §2

[8] = test system: Pasteurella multocida 68C; assay: MIC, broth-dilution microtiter test (Table VII); type: cell-based; conditions: Pasteurella multocida; P. multocida 68C; broth-dilution microtiter; read-out: MIC
In short: as §4

Mycoplasma synoviae = assay: MIC, broth-dilution microtiter test (Table VII); type: cell-based; conditions: Mycoplasmopsis synoviae; M. synoviae; broth-dilution microtiter; read-out: MIC
Method: as §2

[9] = test system: Pasteurella multocida 60A; assay: MIC, broth-dilution microtiter test (Table VII); type: cell-based; conditions: Pasteurella multocida; P. multocida 60A, avian isolate; broth-dilution microtiter; read-out: MIC
In short: as §4

[10] = test system: Pasteurella hemolytica 41D; assay: MIC, broth-dilution microtiter test (Table VII); type: cell-based; conditions: Pasteurella, P. hemolytica 41D, read-out: MIC
In short: as §3

[11] = test system: Pasteurella multocida 17E; assay: MIC, broth-dilution microtiter test (Table VII); type: cell-based; conditions: Pasteurella multocida; P. multocida 17E, bovine isolate; broth-dilution microtiter; read-out: MIC
In short: as §4

[12] = test system: Pasteurella multocida 22A; assay: MIC, broth-dilution microtiter test (Table VII); type: cell-based; conditions: Pasteurella multocida; P. multocida 22A; broth-dilution microtiter; read-out: MIC
In short: as §4

these strains = assay: Activity against the strains of Table VI, agar-dilution; type: cell-based; conditions: at the levels tested
Method: as §2

Pasteurella multocida = assay: Protection of one-day-old chicks against Pasteurella multocida infection (Table IX); type: in vivo; conditions: subcutaneous 30 mg/kg × 2, 1 and 4 hours post-challenge
Method: The C-23 modified derivatives of OMT have also shown in vivo antibacterial activity against infections induced by gram-negative bacteria. Table IX summarizes the results of tests in which illustrative compounds were evaluated against Pasteurella infections in one-day-old chicks. The compounds were administered by subcutaneous injection at a dosage of 30 mg/kg, 1 and 4 hours post-challenge of the chicks with Pasteurella multocida (0.1 ml of a twenty-hour tryptose broth culture of an avian P. multocida given subcutaneously). In the tests, all ten non-medicated infected chicks died within 24 hours of Pasteurella challenge.

[13] = test system: Streptococcus pneumoniae Park I; assay: microbe, parasite or virus in culture; type: cell-based; conditions: Streptococcus pneumoniae; read-out: MIC
Method: as §2

[14] = test system: Staphylococcus aureus X1.1; assay: MIC, standard agar-dilution assay (Table V); type: cell-based; conditions: Staphylococcus aureus, X1.1
Method: as §2

Escherichia coli N10 = assay: MIC, standard agar-dilution assay (Table V); type: cell-based; conditions: Escherichia coli
In short: as §4

[15] = test system: Klebsiella pneumoniae X26; assay: MIC, standard agar-dilution assay (Table V); type: cell-based; conditions: Klebsiella pneumoniae, X26
Method: as §2

[16] = test system: Staphylococcus aureus V41; assay: MIC, standard agar-dilution assay (Table V); type: cell-based; conditions: Staphylococcus aureus
Method: as §2

Escherichia coli EC14 = assay: MIC, standard agar-dilution assay (Table V); type: cell-based; conditions: Escherichia coli
In short: as §4

Streptococcus Group 9960 = assay: MIC, standard agar-dilution assay (Table V); type: cell-based; conditions: GROUP9960; Streptococcus Group 9960; agar dilution; read-out: MIC
Method: as §2

[17] = test system: Staphylococcus epidermidis EPI1; assay: MIC, standard agar-dilution assay (Table V); type: cell-based; conditions: Staphylococcus epidermidis
Method: as §2

[18] = test system: Klebsiella pneumoniae KAE; assay: MIC, standard agar-dilution assay (Table V); type: cell-based; conditions: Klebsiella pneumoniae
In short: as §4

Shigella sonnei N9 = assay: MIC, standard agar-dilution assay (Table V); type: cell-based
In short: as §4

[19] = test system: Staphylococcus aureus S13E; assay: MIC, standard agar-dilution assay (Table V); type: cell-based; conditions: Staphylococcus aureus, S13E
Method: as §2

[20] = test system: Staphylococcus epidermidis EPI2; assay: MIC, standard agar-dilution assay (Table V); type: cell-based; conditions: Staphylococcus epidermidis; S. epidermidis EPI2; agar dilution; read-out: MIC
Method: as §2

[21] = test system: Staphylococcus aureus X400; assay: MIC, standard agar-dilution assay (Table V); type: cell-based; conditions: Staphylococcus aureus
Method: as §2

[22] = test system: Streptococcus Group D X66; assay: MIC, standard agar-dilution assay (Table V); type: cell-based
Method: as §2

[23] = C203, sc, mice, subcutaneous, doses given 1 and 4 hours postinfection, read-out: ED50, Subcutaneous

Compound	MIC [1] [µg/mL]	MIC [2] [µg/mL]	MIC (Escherichia coli TEM) [µg/mL]	MIC [3] [µg/mL]	ED50 ([4]; C203, po, read-out: ED50, Oral) [mg/kg]	ED50 [4, 23] [mg/kg]	MIC (Streptococcus sp. 80) [µg/mL]	MIC [5] [µg/mL]	MIC [6] [µg/mL]	MIC (Staphylococcus aureus) [µg/mL]	MIC [7] [µg/mL]	MIC (Mycoplasma gallisepticum) [µg/mL]	MIC (Mycoplasma hyorhinis) [µg/mL]	MIC [8] [µg/mL]	MIC (Mycoplasma synoviae) [µg/mL]	MIC [9] [µg/mL]	MIC [10] [µg/mL]	MIC [11] [µg/mL]	MIC [12] [µg/mL]	activity against these strains (these strains)	further results
CCC1OC(=O)CC(O)C(C)C(OC2OC(C)C(O)C(N(C)C)C2O)C(CC=O)CC(C)C(=O)C=CC(C)=CC1CSc1nnc(C)o1 (centres unmarked) [Compound 4]	4 (≈ 5.75 µM)	0.25 (≈ 0.359 µM)	32 (≈ 46 µM)	4 (≈ 5.75 µM)	> 100	12.6	0.39 (≈ 0.56 µM)	12.5 (≈ 18 µM)	12.5 (≈ 18 µM)	1.56 (≈ 2.24 µM)	3.12 (≈ 4.48 µM)	0.39 (≈ 0.56 µM)	6.25 (≈ 8.98 µM)	6.25 (≈ 8.98 µM)	0.78 (≈ 1.12 µM)	6.25 (≈ 8.98 µM)	12.5 (≈ 18 µM)	6.25 (≈ 8.98 µM)	6.25 (≈ 8.98 µM)	did not show activity	Number of deaths/number treated (Pasteurella multocida): 8/10; MIC [13]: 0.06 µg/mL (≈ 0.0862 µM); MIC [14]: 0.25 µg/mL (≈ 0.359 µM); MIC (Escherichia coli N10; E. coli N10, agar dilution, read-out: MIC): > 128 µg/mL; MIC [15]: 8 µg/mL (≈ 11.5 µM); MIC ([16]; S. aureus V41, penicillin-resistant strain, agar dilution, read-out: MIC): 0.5 µg/mL (≈ 0.719 µM); MIC (Escherichia coli EC14; E. coli EC14, agar dilution, read-out: MIC): > 128 µg/mL; MIC (Streptococcus Group 9960): 0.5 µg/mL (≈ 0.719 µM); MIC ([17]; S. epidermidis EPI1, agar dilution, read-out: MIC): 0.25 µg/mL (≈ 0.359 µM); MIC ([18]; K. pneumoniae KAE, agar dilution, read-out: MIC): > 128 µg/mL; MIC (Shigella sonnei N9): 64 µg/mL (≈ 92 µM); MIC [19]: 0.25 µg/mL (≈ 0.359 µM); MIC [20]: 0.5 µg/mL (≈ 0.719 µM); MIC ([21]; S. aureus X400, methicillin-resistant strain, agar dilution, read-out: MIC): 0.5 µg/mL (≈ 0.719 µM); MIC ([22]; Streptococcus Group D X66, agar dilution, read-out: MIC): 0.5 µg/mL (≈ 0.719 µM)
CCC1OC(=O)CC(O)C(C)C(OC2OC(C)C(O)C(N(C)C)C2O)C(CC=O)CC(C)C(=O)C=CC(C)=CC1CSc1n[nH]c(=O)c(=O)n1C (centres unmarked) [Compound 6, 23-Deoxo-23-(1H-5,6-dioxo-4-methyl-1,2,4-triazin-3-yl)thio-OMT]	32 (≈ 43.3 µM)	1 (≈ 1.35 µM)	> 128	32 (≈ 43.3 µM)	> 100	13.6	6.25 (≈ 8.46 µM)	50 (≈ 67.7 µM)	50 (≈ 67.7 µM)	12.5 (≈ 16.9 µM)	25 (≈ 33.8 µM)	6.25 (≈ 8.46 µM)	25 (≈ 33.8 µM)	25 (≈ 33.8 µM)	3.12 (≈ 4.22 µM)	25 (≈ 33.8 µM)	50 (≈ 67.7 µM)	25 (≈ 33.8 µM)	25 (≈ 33.8 µM)	did not show activity	MIC [14]: 4 µg/mL (≈ 5.41 µM); MIC (Escherichia coli N10; N10): > 128 µg/mL; MIC [15]: 64 µg/mL (≈ 86.6 µM); MIC ([16]; V41): 4 µg/mL (≈ 5.41 µM); MIC (Escherichia coli EC14; EC14): > 128 µg/mL; MIC (Streptococcus Group 9960): 16 µg/mL (≈ 21.7 µM); MIC ([17]; EPI1): 4 µg/mL (≈ 5.41 µM); MIC [18]: > 128 µg/mL; MIC (Shigella sonnei N9): > 128 µg/mL; MIC [19]: 4 µg/mL (≈ 5.41 µM); MIC [20]: 8 µg/mL (≈ 10.8 µM); MIC ([21]; X400): 8 µg/mL (≈ 10.8 µM); MIC [22]: 16 µg/mL (≈ 21.7 µM)
